Reference: PubChem BioAssay AID1259407 (Chemical Carcinogenesis Research Information System (CCRIS), 2018)
Active and inactive are the calls of the source. The rule behind the calls is not given here.

Tested on: CCRIS mutagenicity, Ames/micronucleus/aberration tests
Experiment: CCRIS mutagenicity studies
[1] = Test System: AMES SALMONELLA TYPHIMURIUM, Strain/Indicator: TA98, Metabolic Activation: HAMSTER, LIVER, S-9, AROCLOR 1254 (10%), Method: PREINCUBATION
[2] = Test System: AMES SALMONELLA TYPHIMURIUM, Strain/Indicator: TA98, Metabolic Activation: NONE, Method: PREINCUBATION
[3] = Test System: AMES SALMONELLA TYPHIMURIUM, Strain/Indicator: TA98, Metabolic Activation: RAT, LIVER, S-9, AROCLOR 1254 (10%), Method: PREINCUBATION
[4] = Test System: AMES SALMONELLA TYPHIMURIUM, Strain/Indicator: TA100, Metabolic Activation: HAMSTER, LIVER, S-9, AROCLOR 1254 (10%), Method: PREINCUBATION
[5] = Test System: AMES SALMONELLA TYPHIMURIUM, Strain/Indicator: TA100, Metabolic Activation: NONE, Method: PREINCUBATION
[6] = Test System: AMES SALMONELLA TYPHIMURIUM, Strain/Indicator: TA100, Metabolic Activation: RAT, LIVER, S-9, AROCLOR 1254 (10%), Method: PREINCUBATION
[7] = Test System: AMES SALMONELLA TYPHIMURIUM, Strain/Indicator: TA1535, Metabolic Activation: HAMSTER, LIVER, S-9, AROCLOR 1254 (10%), Method: PREINCUBATION
[8] = Test System: AMES SALMONELLA TYPHIMURIUM, Strain/Indicator: TA1535, Metabolic Activation: NONE, Method: PREINCUBATION
[9] = Test System: AMES SALMONELLA TYPHIMURIUM, Strain/Indicator: TA1535, Metabolic Activation: RAT, LIVER, S-9, AROCLOR 1254 (10%), Method: PREINCUBATION
[10] = Test System: AMES SALMONELLA TYPHIMURIUM, Strain/Indicator: TA1537, Metabolic Activation: HAMSTER, LIVER, S-9, AROCLOR 1254 (10%), Method: PREINCUBATION
[11] = Test System: AMES SALMONELLA TYPHIMURIUM, Strain/Indicator: TA1537, Metabolic Activation: NONE, Method: PREINCUBATION
[12] = Test System: AMES SALMONELLA TYPHIMURIUM, Strain/Indicator: TA1537, Metabolic Activation: RAT, LIVER, S-9, AROCLOR 1254 (10%), Method: PREINCUBATION
[13] = Test System: AMES SALMONELLA TYPHIMURIUM, Strain/Indicator: TA100, Metabolic Activation: NONE, Method: STANDARD PLATE

## Clc1c2ccccc2cc2c1ccc1ccccc12
Test System: AMES SALMONELLA TYPHIMURIUM, Strain/Indicator: TA98, Metabolic Activation: RAT, LIVER, S-9, AROCLOR 1254, Method: STANDARD PLATE
  mutagenic call: active; positive
Test System: AMES SALMONELLA TYPHIMURIUM, Strain/Indicator: TA100, Metabolic Activation: RAT, LIVER, S-9, AROCLOR 1254, Method: STANDARD PLATE
  mutagenic call: active; positive
Test System: AMES SALMONELLA TYPHIMURIUM, Strain/Indicator: TA100, Metabolic Activation: RAT, LIVER, S-9, PCB, Method: STANDARD PLATE
  mutagenic call: active; positive

## CON
[1]
  mutagenic call: inactive; negative
[2]
  mutagenic call: inactive; negative
[3]
  mutagenic call: inactive; negative
[4]
  mutagenic call: inactive; negative
[5]
  mutagenic call: inactive; negative
[6]
  mutagenic call: inactive; negative
[7]
  mutagenic call: inactive; negative
[8]
  mutagenic call: inactive; negative
[9]
  mutagenic call: inactive; negative
[10]
  mutagenic call: inactive; negative
[11]
  mutagenic call: inactive; negative
[12]
  mutagenic call: inactive; negative

## O=C1NC(=O)C(C(Cl)Cl)=C1Cl
[13]
  mutagenic call: active; positive

## B#B
[1]
  mutagenic call: inactive; negative
Test System: AMES SALMONELLA TYPHIMURIUM, Strain/Indicator: TA98, Metabolic Activation: NONE, Method: GAS EXPOSURE
  mutagenic call: active; positive
[2]
  mutagenic call: inactive; negative
Test System: AMES SALMONELLA TYPHIMURIUM, Strain/Indicator: TA98, Metabolic Activation: RAT LIVER S-9, PHENOBARBITAL AND BETA-NAPHTHOFLAVONE, Method: GAS EXPOSURE
  mutagenic call: active; positive
[3]
  mutagenic call: inactive; negative
Test System: AMES SALMONELLA TYPHIMURIUM, Strain/Indicator: TA98, Metabolic Activation: RAT, LIVER, S-9, PHENOBARBITAL AND 5,6-BENZOFLAVONE, Method: GAS EXPOSURE
  mutagenic call: active; positive
[4]
  mutagenic call: inactive; negative
[5]
  mutagenic call: inactive; negative
Test System: AMES SALMONELLA TYPHIMURIUM, Strain/Indicator: TA100, Metabolic Activation: RAT LIVER S-9, PHENOBARBITAL AND BETA-NAPHTHOFLAVONE, Method: GAS EXPOSURE
  mutagenic call: active; positive
[6]
  mutagenic call: inactive; negative
Test System: AMES SALMONELLA TYPHIMURIUM, Strain/Indicator: TA100, Metabolic Activation: RAT, LIVER, S-9, PHENOBARBITAL AND 5,6-BENZOFLAVONE, Method: GAS EXPOSURE
  mutagenic call: active; positive
[7]
  mutagenic call: inactive; negative
Test System: AMES SALMONELLA TYPHIMURIUM, Strain/Indicator: TA1535, Metabolic Activation: NONE, Method: GAS EXPOSURE
  mutagenic call: inactive; negative
[8]
  mutagenic call: inactive; negative
Test System: AMES SALMONELLA TYPHIMURIUM, Strain/Indicator: TA1535, Metabolic Activation: RAT LIVER S-9, PHENOBARBITAL AND BETA-NAPHTHOFLAVONE, Method: GAS EXPOSURE
  mutagenic call: inactive; negative
[9]
  mutagenic call: inactive; negative
Test System: AMES SALMONELLA TYPHIMURIUM, Strain/Indicator: TA1535, Metabolic Activation: RAT, LIVER, S-9, PHENOBARBITAL AND 5,6-BENZOFLAVONE, Method: GAS EXPOSURE
  mutagenic call: inactive; negative
[10]
  mutagenic call: inactive; negative
Test System: AMES SALMONELLA TYPHIMURIUM, Strain/Indicator: TA1537, Metabolic Activation: NONE, Method: GAS EXPOSURE
  mutagenic call: inactive; negative
[11]
  mutagenic call: inactive; negative
Test System: AMES SALMONELLA TYPHIMURIUM, Strain/Indicator: TA1537, Metabolic Activation: RAT LIVER S-9, PHENOBARBITAL AND BETA-NAPHTHOFLAVONE, Method: GAS EXPOSURE
  mutagenic call: inactive; negative
[12]
  mutagenic call: inactive; negative
Test System: AMES SALMONELLA TYPHIMURIUM, Strain/Indicator: TA1537, Metabolic Activation: RAT, LIVER, S-9, PHENOBARBITAL AND 5,6-BENZOFLAVONE, Method: GAS EXPOSURE
  mutagenic call: inactive; negative
Test System: E. COLI, Strain/Indicator: WP2 UVRA, Metabolic Activation: NONE, Method: GAS EXPOSURE
  mutagenic call: inactive; negative
Test System: E. COLI, Strain/Indicator: WP2 UVRA, Metabolic Activation: RAT, LIVER, S-9, PHENOBARBITAL AND 5,6-BENZOFLAVONE, Method: GAS EXPOSURE
  mutagenic call: active; positive
Test System: E.COLI, Strain/Indicator: WP2UVRA, Metabolic Activation: NONE, Method: GAS EXPOSURE
  mutagenic call: inactive; negative
Test System: E.COLI, Strain/Indicator: WP2UVRA, Metabolic Activation: RAT LIVER S-9, PHENOBARBITAL AND BETA-NAPHTHOFLAVONE, Method: GAS EXPOSURE
  mutagenic call: active; positive

## C/C=C1/C[C@@H](C)[C@](C)(OC(C)=O)C(=O)OC/C2=C/CN(C)CC[C@@H](OC1=O)C2=O
Test System: UDS RAT HEPATOCYTES, Strain/Indicator: THY INCORP, Metabolic Activation: NONE, Method: AUTORADIOGRAPHY
  mutagenic call: active; positive

## Oc1cccc2c1ccc1[nH]c3ccc4ccccc4c3c12
Test System: AMES SALMONELLA TYPHIMURIUM, Strain/Indicator: TA98, Metabolic Activation: NONE, Method: STANDARD PLATE
  mutagenic call: active; positive
Test System: AMES SALMONELLA TYPHIMURIUM, Strain/Indicator: TA98, Metabolic Activation: RAT, LIVER, S-9, 3-METHYLCHOLANTHRENE, Method: STANDARD PLATE
  mutagenic call: active; positive
[13]
  mutagenic call: active; positive
Test System: AMES SALMONELLA TYPHIMURIUM, Strain/Indicator: TA100, Metabolic Activation: RAT, LIVER, S-9, 3-METHYLCHOLANTHRENE, Method: STANDARD PLATE
  mutagenic call: active; positive
Test System: AMES SALMONELLA TYPHIMURIUM, Strain/Indicator: TM677, Metabolic Activation: NONE, Method: PREINCUBATION
  mutagenic call: inactive; negative
Test System: AMES SALMONELLA TYPHIMURIUM, Strain/Indicator: TM677, Metabolic Activation: RAT, LIVER, S-9, 3-METHYLCHOLANTHRENE (10%), Method: PREINCUBATION
  mutagenic call: active; positive
Test System: AMES SALMONELLA TYPHIMURIUM, Strain/Indicator: TM677, Metabolic Activation: RAT, LIVER, S-9, AROCLOR 1254 (10%), Method: PREINCUBATION
  mutagenic call: active; positive
